Columns and labels:
[1] = Superoxide scavenging assay; type: biochemical; conditions: 590 nm
EB–DNA = test: Ethidium bromide displacement assay by fluorescence spectral titration; type: binding, calf; conditions: for LWB Method KLB (Lineweaver-Burk binding constant) / Scatchard Analysis KSA (Scatchard association binding constant) / Scatchard Analysis n (number of binding sites) / n (number of binding sites), DNA binding, Stern–Volmer Method–II / KSV (Stern-Volmer binding constant), DNA binding, Method–I / Kass (association binding constant), DNA binding, Stern–Volmer Method–II: EB–DNA; for LWB Method KLB (Lineweaver-Burk binding constant) / Scatchard Analysis KSA (Scatchard association binding constant) / Scatchard Analysis n (number of binding sites) / n (number of binding sites), DNA binding, Stern–Volmer Method–II / Kq (bimolecular quenching rate constant), DNA binding, Stern–Volmer Method–I: pH 7.4; for KSV (Stern-Volmer binding constant), DNA binding, Method–I / Kass (association binding constant), DNA binding, Stern–Volmer Method–II: pH 7.4, 610 nm; for Kq (bimolecular quenching rate constant), DNA binding, Stern–Volmer Method–I: Kq=KSV/τ0, τ0 = 10^−8 S, 610 nm; for P (ratio of fluorescence quantum efficiency of DNA bound and free complex): intercept of F/F0 vs 1/[DNA]; for ΔGb°, DNA binding, Stern–Volmer Method–II: −RT ln Kass, T = 298 K
Description: The DNA/BSA binding properties were acquired from the emission spectral titration with the supporting of the JASCO FP-6300 spectrofluorometer between the 200 and 800 nm regions. It is additional evidence for the complexes’ manner of DNA binding. While DNA (200 µM) was present or absent, we vigilantly monitored the intensity variations between 610 nm and 510 nm during the initial emission and excitation of EB [27]. Correspondingly, the emission titrations for BSA interaction with different concentrations between 2.5 μM and 25 μM for all samples were conducted in a Tris-HCl buffer solution (pH: 7.4) between the regions of 300 nm and 400 nm.
2.2.5. DNA/BSA binding assay by fluorescence titration
The titration was executed by the JASCO FP-6300 spectrofluorometer in the range of 200 – […]
DNA. To assess the relative DNA binding abilities of the test compound to CT-DNA, ethidium bromide (EB) was utilized as a reference. In the experiment, EB solution (20 µM) in 50 mM Tris –HCl /1 mM NaCl buffer solution (pH=7.2) was incubated with the DNA […]
solution (240 µM) at saturated binding levels and stored in a dark place for two hours. The tested compounds (1 –240 µM) were titrated with pre-incubated EB-bound DNA.
Additionally, from 610 nm to 510 nm, in the absence and presence of DNA (240 µM), the intensity changes for initial emission and excitation of EB were cautiously observed. As a conjugate planar molecule, EB's acquired fluorescence intensity is extremely low, but it […]
concentration of the compounds (0-240 µM), the intensity of the EB-DNA system decreases owing to the quenching effect of DNA by the manner of static quenching. It further attributes the generation of ground state DNA – complex adduct owing the cationic metal complexes interacting with the negatively charged oxygen in phosphodiester of DNA and the contraction of DNA pushes a few EB molecules out of DNA base pairs [ 27].
Fcorr = Fobs × e[(Aex× dex) + (Aem× dem)]/ 2 = Fobs × e(Aex + Aem)/ 2 (S12) Fcorr and F obs are represented as the IFE-corrected emission and observed (uncorrected) emission intensities, respectively. d ex and d em are denoted as the cuvette path lengths in the […]
excitation and emission directions, respectively. Also, the alteration in absorbance (OD) at the excitation and fluorescence wavelengths, respectively, is sometimes referred to as A ex and […]
F = 1+KSV [Q] = 1+ Kq τ0 (S13)
Where [Q] is represented as the sample concentration (quencher), the emission intensities F 0 and F are those in the […] of the quencher, respectively.
F ) = log Kass + nlog [Q] (S14)
KEB[EB] = Kapp[compound] (S15)
∆F = (F 0–F), Equation (16) was utilized to examine the Lineweaver –Burk binding constant (KLB) from the linear regression plot of 1/(F0–F) vs 1/[Q]. […]
γ =(F0–F)/F0, CF is denoted as the concentration of sample alone, the linear regression plot of (γ/CF) vs γ was employed to support equation (17), which was used to determine the values of KSA and n, respectively.
2.2.6. FRET calculation by Förster’s theory
Calculating FRET (Fluorescence Resonance Energy Transfer) is a crucial approach in determining the critical distance (r) between donor (BSA) and acceptor (test compound) molecules, in which the binding affinity between the BSA-complex systems could be evalued according to Förster’s theory. The overlap of the emission spectrum of the donor (BSA) and the absorption spectrum of the acceptor (compound) describes that the acceptor (compound) group may get excited as a result of the excited donor's (BSA) energy being lost to the ground

[2] = Nitric oxide scavenging assay; type: biochemical; conditions: 546 nm
Pseudomonas aeruginosa = test: Agar disc diffusion antibacterial test; conditions: for diameter of clear zone inhibition / Inhibition %: D, (-) Pseudomonas aeruginosa; for diameter of clear zone inhibition: 20 µL of 100 µM on 6 mm disc, Control (DMSO) = 6 mm; for Inhibition %: (T–C)/T × 100
Bacillus cereus = test: Agar disc diffusion antibacterial test; conditions: for diameter of clear zone inhibition / Inhibition %: G, (+) Bacillus cereus; for diameter of clear zone inhibition: 20 µL of 100 µM on 6 mm disc, Control (DMSO) = 6 mm; for Inhibition %: (T–C)/T × 100

SMILES	% Inhibition, superoxide ([1]; 40 µM) [%]	% Inhibition, superoxide ([1]; 80 µM) [%]	% Inhibition, superoxide ([1]; 120 µM) [%]	% Inhibition, superoxide ([1]; 160 µM) [%]	% Inhibition, superoxide ([1]; 200 µM) [%]	% Inhibition, superoxide ([1]; 240 µM) [%]	LWB Method KLB (Lineweaver-Burk binding constant) (EB–DNA) [M⁻¹]	Scatchard Analysis KSA (Scatchard association binding constant) (EB–DNA) [M⁻¹]	Scatchard Analysis n (number of binding sites) (EB–DNA)	n (number of binding sites), DNA binding, Stern–Volmer Method–II (EB–DNA)	KSV (Stern-Volmer binding constant), DNA binding, Method–I (EB–DNA) [M⁻¹]	Kass (association binding constant), DNA binding, Stern–Volmer Method–II (EB–DNA) [M⁻¹]	Kq (bimolecular quenching rate constant), DNA binding, Stern–Volmer Method–I (EB–DNA) [M⁻¹ s⁻¹]	P (ratio of fluorescence quantum efficiency of DNA bound and free complex) (EB–DNA)	ΔGb°, DNA binding, Stern–Volmer Method–II (EB–DNA)	% Inhibition, nitric oxide ([2]; 40 µM) [%]	% Inhibition, nitric oxide ([2]; 80 µM) [%]	% Inhibition, nitric oxide ([2]; 120 µM) [%]	% Inhibition, nitric oxide ([2]; 160 µM) [%]	% Inhibition, nitric oxide ([2]; 200 µM) [%]	further results
[O-]c1ccccc1N=Cc1ccc(N2CCOCC2)cc1.[O-]c1ccccc1N=Cc1ccc(N2CCOCC2)cc1.[Zn+2].c1cnc2c(c1)ccc1cccnc12 [(2b), [Zn^II(L)2(phen)]]	06.70	12.58	24.23	40.35	52.23	60.02	18218	32941	0.909	1.083	20669	19688	2.0669e+12	0.124	–24.873 kJM^−1	14.67	22.43	29.42	38.82	45.53	% Inhibition, nitric oxide ([2]; 240 µM): 59.88%; diameter of clear zone inhibition (Pseudomonas aeruginosa): 08 mm; Inhibition % (Pseudomonas aeruginosa): 25%; diameter of clear zone inhibition (Bacillus cereus): 11 mm; Inhibition % (Bacillus cereus): 45%
Oc1ccccc1N=Cc1ccc(N2CCOCC2)cc1 [(HL), 2-(4-morpholinobenzylideneamino)phenol]	05.23	10.74	18.85	33.55	40.91	50.42	6985	23194	1.096	0.976	11636	9882	1.1636e+12	0.090	–22.790 kJM^−1	11.42	18.26	24.28	33.21	40.53	% Inhibition, nitric oxide ([2]; 240 µM): 51.62%; Inhibition % (Pseudomonas aeruginosa): 25%; zone of inhibition at 100 µM (Pseudomonas aeruginosa; Pseudomonas aeruginosa, read-out: diameter of clear zone inhibition): 8 mm; zone of inhibition at 100 µM (Bacillus cereus; Bacillus cereus, read-out: diameter of clear zone inhibition): 9 mm; Inhibition % (Bacillus cereus): 33%
[Cu+2].[O-]c1ccccc1N=Cc1ccc(N2CCOCC2)cc1.[O-]c1ccccc1N=Cc1ccc(N2CCOCC2)cc1.c1cnc2c(c1)ccc1cccnc12 [(1b), [Cu^II(L)2(phen)]]	08.45	16.53	32.18	48.09	60.93	68.21	21654	33302	1.008	1.088	40303	31817	4.0303e+12	0.128	–26.942 kJM^−1	18.03	25.43	35.67	42.86	52.29	IC50 [1]: 200 µM; % Inhibition, nitric oxide ([2]; 240 µM): 66.21%; diameter of clear zone inhibition (Pseudomonas aeruginosa): 9 mm; Inhibition % (Pseudomonas aeruginosa): 33%; diameter of clear zone inhibition (Bacillus cereus): 10 mm; Inhibition % (Bacillus cereus): 40%
